Measurements reported in US20130217713A1, “PREDICTIVE MARKER FOR EGFR INHIBITOR TREATMENT” (Hoffmann-La Roche Inc., priority 2007, published 2013).
Read-outs that look alike come from different tables or passages of the source.

How the values were obtained:
NSCLC [1] = conditions: cited from earlier work
NSCLC [2] = conditions: second line therapy of NSCLC; cited from earlier work
NSCLC [3] = conditions: single agent, NSCLC patients after failure of standard therapy for advanced disease; cited from earlier work
[4] = patients with cancer, 150 mg/day; compared with targeted average plasma concentration; cited from earlier work
advanced NSCLC = conditions: 75 patients with qRT-PCR results

CC(=O)O[C@@]12CO[C@@H]1C[C@H](O)[C@@]1(C)C(=O)[C@H](O)C3=C(C)[C@@H](OC(=O)[C@H](O)[C@@H](NC(=O)OC(C)(C)C)c4ccccc4)C[C@@](O)([C@@H](OC(=O)c4ccccc4)[C@H]21)C3(C)C [docetaxel]
survival, third-line treatment or beyond (NSCLC [1]; docetaxel as third-line treatment or beyond): no prolongation of survival | survival (NSCLC [1]; second line after cisplatin-based first-line regimens failed, ECOG 0, 1 or 2): improved survival

Nc1nc2[nH]cc(CCc3ccc(C(=O)N[C@@H](CCC(=O)O)C(=O)O)cc3)c2c(=O)[nH]1 [pemetrexed]
efficacy compared with docetaxel (NSCLC [2]): clinically equivalent efficacy | side effects compared with docetaxel (NSCLC [2]): significantly fewer side effects

C#Cc1cccc(Nc2ncnc3cc(OCCOC)c(OCCOC)cc23)c1 [Tarceva, erlotinib]
survival (NSCLC [3]): significantly prolongs and improves the survival | drug levels in plasma [4]: > 500 ng/mL | PD (advanced NSCLC): 39 (52%) n (%) | partial response (PR) (advanced NSCLC): 4 (5%) n (%)
